Data reported in patent US10208033B2, “β-carboline, dihydro-β-carboline and tetrahydro-β-carboline alkaloid derivatives and preparation methods same and use in aspects of preventing and treating plant viruses, fungicides and insecticides” (NANKAI UNIVERSITY, priority 2013, dated 2019).
≈ marks a conversion by molar mass, not a printed value.

Experiments:
culex pipiens larvae = conditions: in vivo; cited from earlier work
Lipaphis erysimi = conditions: in vivo; cited from earlier work
armyworms = assay type: in vivo; conditions: concentration 600 mg/kg
Phytophthora capsici = assay: Fungicidal (bactericidal) activity in vitro, PDA colony diameter; assay type: cell-based; conditions: 50 mg/kg
potato late blight = assay: microbe, parasite or virus in culture; assay type: cell-based
Alternaria solani = assay: Fungicidal (bactericidal) activity in vitro, PDA colony diameter; assay type: cell-based; conditions: 50 mg/kg
Fusarium fujikuroi = assay: as above; assay type: cell-based; conditions: 50 mg/kg
mosquito larvae = assay: whole plant or invertebrate; conditions: concentration 10 mg/kg, 24 h
Summary of the method: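 Early fourth-instar Culex pipiens pallens larvae from an indoor colony, 10 per beaker, exposed to test compound at 5 ppm in water, diluted from a 1000 ppm acetone mother solution. Blank: water containing 0.5 mL test solvent.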

Macrophoma kawatsukai = assay: Fungicidal (bactericidal) activity in vitro, PDA colony diameter; assay type: cell-based; conditions: 50 mg/kg
[1] = tested on: Colletotrichum orbiculare; assay: as above; assay type: cell-based; conditions: 50 mg/kg
Sclerotinia scleotiorum = assay: as above; assay type: cell-based; conditions: 50 mg/kg
Rhizoctonia cereali = assay: as above; assay type: cell-based; conditions: 50 mg/kg
Botrytis cinerea = assay: as above; assay type: cell-based; conditions: 50 mg/kg
Cercospora arachidicola = assay: as above; assay type: cell-based; conditions: 50 mg/kg
[2] = tested on: tobacco mosaic virus (TMV); assay: Anti-TMV in vivo inactivation; design: species or system tobacco mosaic virus (host Nicotiana tabacum L.cv.Xanthi NN)
corn borers = conditions: concentration 600 mg/kg
14 kinds of fungi = assay: Bactericidal activity, overall statements on Table 2; assay type: cell-based; conditions: Table 2, 50 mg/kg
Source text: In vitro test method (Alternaria solani is taken for example. Alternatively, other fungi may be used): Inoculate Alternaria solani to PDA culture medium, culture it for 7 days, prepare […] bacteria plates from colony edge by a puncher, inoculate […] and drug-free PDA culture media, culture them for 4 days, measure colony diameter, compare with the control group and calculate the inhibition percentage of the drug.

cotton bollworms = assay: whole plant or invertebrate; conditions: concentration 600 mg/kg
Procedure: Experimental method of cotton bollworms: feed and drug mixing method: measure 3 mL of prepared solution and add it to about 27 g of newly prepared feed, thereby obtaining needed concentration through dilution by 10 times.

[3] = tested on: tobacco mosaic virus (TMV); assay: Anti-TMV in vivo therapeutic effect; design: species or system tobacco mosaic virus (host Nicotiana tabacum L.cv.Xanthi NN)
cucumber fusarium wilt = assay: Fungicidal (bactericidal) activity in vitro, PDA colony diameter; assay type: cell-based; conditions: 50 mg/kg
[4] = tested on: tobacco mosaic virus (TMV); assay: Anti-TMV in vitro effect (half-leaf soaking); assay type: cell-based, tobacco mosaic virus (host Nicotiana tabacum L.cv.Xanthi NN)
Bipolaria maydis = assay: organism not typed; assay type: cell-based; conditions: 50 mg/kg
Rhizoctonia solani = assay: Fungicidal (bactericidal) activity in vitro, PDA colony diameter; assay type: cell-based; conditions: 50 mg/kg
[5] = tested on: tobacco mosaic virus (TMV); assay: Anti-TMV in vivo protective effect; design: species or system tobacco mosaic virus (host Nicotiana tabacum L.cv.Xanthi NN)
Fusarium graminearumt = assay: microbe, parasite or virus in culture; assay type: cell-based; conditions: 50 mg/kg

## COC(=O)c1cc2c([nH]c3ccccc32)c(-c2ccccc2)n1
Culex pipiens larvae
  LC50 against culex pipiens larvae: 20.82 µg/mL (≈ 68.9 µM)
Lipaphis erysimi
  LC50 against Lipaphis erysimi: 53.16 µg/mL (≈ 176 µM)

## COC(=O)C1Cc2c([nH]c3ccccc23)C(c2ccccc2)N1 (stereo not drawn)
Culex pipiens larvae
  LC50 against culex pipiens larvae: 23.98 µg/mL (≈ 78.3 µM)
Lipaphis erysimi
  LC50 against Lipaphis erysimi: 68.05 µg/mL (≈ 222 µM)

## Cc1nc(C=O)cc2c1[nH]c1ccccc12 [Ia-13, 1-methyl-pyridino [3,4-b] indol-3-formaldehyde]
other
  melting point: 194 to 196 °C

## CC[C@@H]1N[C@H](C(=O)O)Cc2c1[nH]c1ccccc21 [Ib-3, (1S, 3S)-1-ethyl-2,3,4,9-tetrahydropyridino [3,4-b] indol-3-formic acid]
other
  melting point: 277 to 280 °C

## C[C@@H]1N[C@H](C(=O)NN=Cc2ccc(Cl)c(Cl)c2)Cc2c1[nH]c1ccccc21 [Ic-7, (1S, 3S)—N′-(3,4-dichlorobenzylidene)-1-methyl-2,3,4,9-tetrahydropyridino [3,4-b] indol-3-formylhydrazine]
armyworms
  Armyworm Mortality (%): 5%
Phytophthora capsici
  Bactericidal activity (%) Phytophthora capsici: 84.8%
Potato late blight
  Bactericidal activity (%) potato late blight: 65.2%
Alternaria solani
  Bactericidal activity (%) Alternaria solani: 71.4%
Fusarium fujikuroi
  Bactericidal activity (%) Fusarium fujikuroi: 70.6%
Mosquito larvae
  Mosquito larvae Mortality (%): 10%
Macrophoma kawatsukai
  Bactericidal activity (%) Macrophoma kawatsukai: 97.0%
[1]
  Bactericidal activity (%) Colletotrichum orbiculare: 80.0%
Sclerotinia scleotiorum
  Bactericidal activity (%) Sclerotinia scleotiorum: 84.6%
Rhizoctonia cereali
  Bactericidal activity (%) Rhizoctonia cereali: 97.3%
Botrytis cinerea
  Bactericidal activity (%) Botrytis cinerea: 80.6%
Cercospora arachidicola
  Bactericidal activity (%) Cercospora arachidicola: 72.7%
[2]; treatment dose 100 μg/mL
  Relative inhibition rate (%) In vivo inactivation: 20.4%
[2]; treatment dose 500 μg/mL
  Relative inhibition rate (%) In vivo inactivation: 55.2%
Corn borers
  Corn borer Mortality (%): 5%
14 kinds of fungi
  bactericidal activity against fungi (in words): very good bactericidal activity against various kinds of fungi
Cotton bollworms
  Cotton bollworm Mortality (%): 30%
[3]; treatment dose 100 μg/mL
  Relative inhibition rate (%) In vivo therapy: 23.5%
[3]; treatment dose 500 μg/mL
  Relative inhibition rate (%) In vivo therapy: 48.9%
Cucumber fusarium wilt
  Bactericidal activity (%) Cucumber fusarium wilt: 77.3%
[4]; treatment dose 100 μg/mL
  Relative inhibition rate (%) In vitro activity: 15.1%
[4]; treatment dose 500 μg/mL
  Relative inhibition rate (%) In vitro activity: 50.7%
Bipolaria maydis
  Bactericidal activity (%) Bipolaria maydis: 80.0%
Rhizoctonia solani
  Bactericidal activity (%) Rhizoctonia solani: 62.5%
[5]; treatment dose 100 μg/mL
  Relative inhibition rate (%) In vivo protection: 14.8%
[5]; treatment dose 500 μg/mL
  Relative inhibition rate (%) In vivo protection: 48.1%
Fusarium graminearumt
  Bactericidal activity (%) Fusarium graminearumt: 76.9%
